From patent US20150247179A1 (Les Laboratoires Servier, priority 2013, published 2015)
Where two headings read alike, the source gives them in different places.

Tests used:
[1] = human
Description: (§1) Each active ingredient was incubated at 0.1 μM at 37° C. […] The reaction is initiated by addition of NADPH 1 mM. The incubation is monitored in kinetic form. At the incubation timepoints of 7 min, 17 min, 30 min and then 60 min, an incubation aliquot (100 μL) is sampled and the enzymatic reaction is stopped by adding to that aliquot a to volume of solvent (100 μL of methanol) which is placed in ice for 10 minutes.
(§2) At each incubation timepoint, the active ingredient is quantified by high-performance liquid chromatography (HPLC) coupled with mass spectrometry (MS).

CYP2C8 = target: T1, CYP2C8 (Homo sapiens, UniProt P10632)
T1 sequence (P10632 1-490): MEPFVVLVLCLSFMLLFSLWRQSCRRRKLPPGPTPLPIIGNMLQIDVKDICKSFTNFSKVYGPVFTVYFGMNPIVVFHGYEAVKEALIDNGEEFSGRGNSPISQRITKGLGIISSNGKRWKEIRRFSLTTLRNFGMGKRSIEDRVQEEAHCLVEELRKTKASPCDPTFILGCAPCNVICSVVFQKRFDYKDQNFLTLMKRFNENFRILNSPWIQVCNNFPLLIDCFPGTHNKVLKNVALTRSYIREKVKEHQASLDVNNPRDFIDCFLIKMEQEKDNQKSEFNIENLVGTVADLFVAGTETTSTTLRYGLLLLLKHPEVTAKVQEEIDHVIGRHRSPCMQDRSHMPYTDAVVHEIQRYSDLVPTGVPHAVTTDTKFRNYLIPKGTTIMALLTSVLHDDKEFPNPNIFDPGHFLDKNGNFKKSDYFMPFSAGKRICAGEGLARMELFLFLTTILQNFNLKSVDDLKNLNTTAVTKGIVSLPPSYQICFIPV
Description: as §1, §2

CYP2C9 = CYP2C9 (Homo sapiens, UniProt P11712)
Chain of CYP2C9 (P11712 whole entry): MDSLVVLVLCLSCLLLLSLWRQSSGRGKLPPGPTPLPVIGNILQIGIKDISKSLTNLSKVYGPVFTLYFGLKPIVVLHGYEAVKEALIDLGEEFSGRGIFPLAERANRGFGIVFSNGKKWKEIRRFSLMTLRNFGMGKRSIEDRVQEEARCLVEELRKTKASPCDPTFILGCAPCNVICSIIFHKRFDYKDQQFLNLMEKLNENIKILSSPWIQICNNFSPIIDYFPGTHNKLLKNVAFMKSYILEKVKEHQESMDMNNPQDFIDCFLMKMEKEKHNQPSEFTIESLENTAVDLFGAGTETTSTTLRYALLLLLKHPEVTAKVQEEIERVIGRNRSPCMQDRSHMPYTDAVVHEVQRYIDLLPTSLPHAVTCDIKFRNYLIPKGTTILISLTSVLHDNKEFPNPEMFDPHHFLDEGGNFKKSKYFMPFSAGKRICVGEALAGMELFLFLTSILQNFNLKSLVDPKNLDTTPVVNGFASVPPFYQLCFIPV
Description: as §1, §2

CYP3A4 [2] = target: T2, CYP3A4 (Homo sapiens, UniProt P08684)
Description: as §1, §2
Target sequence in this assay (P08684 2-503): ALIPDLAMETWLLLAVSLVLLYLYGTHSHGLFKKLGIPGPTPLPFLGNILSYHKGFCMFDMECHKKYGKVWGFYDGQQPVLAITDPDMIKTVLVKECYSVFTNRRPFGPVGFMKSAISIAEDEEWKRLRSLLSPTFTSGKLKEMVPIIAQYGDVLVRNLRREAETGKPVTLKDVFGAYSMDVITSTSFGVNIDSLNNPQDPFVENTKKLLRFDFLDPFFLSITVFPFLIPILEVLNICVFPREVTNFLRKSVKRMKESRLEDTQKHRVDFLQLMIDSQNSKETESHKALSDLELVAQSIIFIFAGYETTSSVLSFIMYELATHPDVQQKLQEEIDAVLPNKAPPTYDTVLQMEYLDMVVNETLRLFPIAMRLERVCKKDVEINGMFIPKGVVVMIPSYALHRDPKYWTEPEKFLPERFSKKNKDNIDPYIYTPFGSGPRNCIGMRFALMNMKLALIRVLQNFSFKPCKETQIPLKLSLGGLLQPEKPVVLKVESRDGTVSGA

CYP2B6 [3] = target: T3, CYP2B6 (Homo sapiens, UniProt P20813); conditions: in a pool of human liver; cited from earlier work
T3 sequence (P20813 1-491): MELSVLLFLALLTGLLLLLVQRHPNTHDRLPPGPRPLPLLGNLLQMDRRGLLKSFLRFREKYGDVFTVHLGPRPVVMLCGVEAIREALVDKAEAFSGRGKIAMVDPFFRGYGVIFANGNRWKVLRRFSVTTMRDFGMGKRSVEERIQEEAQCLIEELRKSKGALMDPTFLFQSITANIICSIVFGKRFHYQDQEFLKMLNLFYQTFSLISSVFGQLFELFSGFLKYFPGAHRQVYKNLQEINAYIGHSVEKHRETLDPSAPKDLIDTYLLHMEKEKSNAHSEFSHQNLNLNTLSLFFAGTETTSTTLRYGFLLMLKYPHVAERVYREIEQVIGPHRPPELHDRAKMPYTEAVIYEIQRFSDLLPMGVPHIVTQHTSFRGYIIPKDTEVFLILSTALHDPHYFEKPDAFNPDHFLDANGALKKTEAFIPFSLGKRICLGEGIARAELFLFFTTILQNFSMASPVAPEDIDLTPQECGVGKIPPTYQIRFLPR

CYP1A2 = test system: CYP1A2
Description: as §1, §2

CYP2B6 [4] = target: T3, CYP2B6
Description: as §1, §2

CYP2D6 [5] = target: T4, CYP2D6 (Homo sapiens, UniProt P10635)
T4 sequence (P10635 whole entry): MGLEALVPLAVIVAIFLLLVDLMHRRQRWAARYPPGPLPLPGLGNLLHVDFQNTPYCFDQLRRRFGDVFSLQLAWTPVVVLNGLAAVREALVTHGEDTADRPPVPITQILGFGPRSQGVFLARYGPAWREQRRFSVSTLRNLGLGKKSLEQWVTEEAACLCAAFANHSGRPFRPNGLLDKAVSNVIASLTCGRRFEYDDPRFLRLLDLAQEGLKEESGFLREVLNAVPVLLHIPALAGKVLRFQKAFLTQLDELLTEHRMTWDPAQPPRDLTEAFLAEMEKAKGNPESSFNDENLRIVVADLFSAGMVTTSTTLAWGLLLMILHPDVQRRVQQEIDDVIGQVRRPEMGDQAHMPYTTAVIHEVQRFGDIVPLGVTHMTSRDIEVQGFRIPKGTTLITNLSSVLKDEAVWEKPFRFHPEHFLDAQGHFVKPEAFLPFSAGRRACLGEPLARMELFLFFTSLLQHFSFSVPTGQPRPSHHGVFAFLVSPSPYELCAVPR
Description: as §1, §2

CYP3A4 [6] = target: T2, CYP3A4; conditions: bortezomib 2 μM; human liver microsomes; cited from earlier work
Target sequence in this assay (P08684 whole entry): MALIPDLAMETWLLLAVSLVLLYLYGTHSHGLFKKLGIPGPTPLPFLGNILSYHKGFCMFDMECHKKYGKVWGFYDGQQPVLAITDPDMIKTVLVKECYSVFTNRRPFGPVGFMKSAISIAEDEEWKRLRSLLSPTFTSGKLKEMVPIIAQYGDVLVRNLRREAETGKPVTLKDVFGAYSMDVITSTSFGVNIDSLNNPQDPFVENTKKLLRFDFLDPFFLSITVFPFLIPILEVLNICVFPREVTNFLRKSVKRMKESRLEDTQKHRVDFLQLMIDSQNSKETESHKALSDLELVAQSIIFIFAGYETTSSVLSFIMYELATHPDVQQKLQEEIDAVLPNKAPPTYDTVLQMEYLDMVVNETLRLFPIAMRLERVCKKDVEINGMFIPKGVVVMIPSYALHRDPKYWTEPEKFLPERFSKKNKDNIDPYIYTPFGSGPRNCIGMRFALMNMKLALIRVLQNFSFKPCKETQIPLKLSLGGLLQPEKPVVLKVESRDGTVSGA

CYP3A4 [7] = target: T2, CYP3A4; conditions: healthy volunteers; itraconazole 100 mg; loperamide 4 mg; cited from earlier work
Target sequence in this assay (P08684 whole entry): as above

CYP3A4 [8] = target: T2, CYP3A4; conditions: healthy volunteer; ritonavir 600 mg; loperamide 16 mg; cited from earlier work
Target sequence in this assay (P08684 whole entry): as above

CYP2D6 [9] = target: T4, CYP2D6; conditions: mirtazapine 2.5 to 1000 μM; human recombinant enzyme model; cited from earlier work
CYP3A4 [10] = target: T2, CYP3A4; conditions: mirtazapine 2.5 to 1000 μM; human recombinant enzyme model; cited from earlier work
Target sequence in this assay (P08684 whole entry): as above

Row | intrinsic clearance in the presence of control microsomes [1] | inhibition of intrinsic clearance = % involvement of CYP2C8 in the oxidative metabolism (kit of isolated microsomes) (CYP2C8) | inhibition of intrinsic clearance = % involvement of CYP2C9 in the oxidative metabolism (kit of isolated microsomes) (CYP2C9) | inhibition of intrinsic clearance = % involvement of CYP3A4 in the oxidative metabolism (kit of isolated microsomes) (CYP3A4 [2]) | inhibition of intrinsic clearance = % involvement of CYP1A2 in the oxidative metabolism (kit of isolated microsomes) (CYP1A2) | inhibition of intrinsic clearance = % involvement of CYP2B6 in the oxidative metabolism (kit of isolated microsomes) (CYP2B6 [4]) | inhibition of intrinsic clearance = % involvement of CYP2D6 in the oxidative metabolism (kit of isolated microsomes) (CYP2D6 [5]) | Compound | % involvement of CYP2B6 in the metabolism, expected data (Obach et al.) (CYP2B6 [3]) [%] | inhibition of metabolism by anti-CYP 3A4 monoclonal antibody = % involvement of CYP3A4, expected data (Uttamsingh et al.) (CYP3A4 [6]) [%] | increase in exposure, factor (CYP3A4 [7]) | increase in exposure, factor (CYP3A4 [8]) | % involvement of CYP2D6 in the metabolism, expected data (Störmer et al.) (CYP2D6 [9]) [%] | % involvement of CYP3A4 in the metabolism, expected data (Störmer et al.) (CYP3A4 [10]) [%]
1 | 52.5-70.5 ml/min/g of proteins | No significant inhibition | No significant inhibition | No significant inhibition | – | – | – | CN[C@H]1CC[C@@H](c2ccc(Cl)c(Cl)c2)c2ccccc21 [sertraline] | 60 | – | – | – | – | –
2 | 6.9-11 ml/min/g of proteins | No significant inhibition | No significant inhibition | – | No significant inhibition | No significant inhibition | No significant inhibition | CC(C)C[C@H](NC(=O)[C@H](Cc1ccccc1)NC(=O)c1cnccn1)B(O)O [bortezomib] | – | 79 | – | – | – | –
3 | – | – | – | – | – | – | – | CN(C)C(=O)C(CCN1CCC(O)(c2ccc(Cl)cc2)CC1)(c1ccccc1)c1ccccc1 [loperamide] | – | – | 3.8 | 2.65 | – | –
4 | 3.9-7.8 ml/min/g of proteins | No significant inhibition | No significant inhibition | – | – | No significant inhibition | – | CN1CCN2c3ncccc3Cc3ccccc3C2C1 (centres unmarked) [mirtazapine] | – | – | – | – | 39 | 23
